The values that follow come from ChEMBL document CHEMBL1128632, “The discovery of a series of new non-indole 5HT1D agonists” (Bioorg Med Chem Lett, 1995).

SMILES strings stand for the structures.

The species entered for assay [1] is Canis familiaris. Put plainly: Effective dose required to induce constriction of dog saphenous vein segments. Type of assay: functional. The following applies: Canis lupus familiaris, read-out: ED50 (the source's name).
The species named for assay [2] is Sus scrofa. Put plainly: Ability to induce constriction of pig basilary artery. It is filed as functional. The following applies: read-out: ED50 (the source's name).
In assay [3] the target is T1, 5-hydroxytryptamine receptor 1A (Homo sapiens, UniProt P08908).
T1 sequence (P08908 whole entry): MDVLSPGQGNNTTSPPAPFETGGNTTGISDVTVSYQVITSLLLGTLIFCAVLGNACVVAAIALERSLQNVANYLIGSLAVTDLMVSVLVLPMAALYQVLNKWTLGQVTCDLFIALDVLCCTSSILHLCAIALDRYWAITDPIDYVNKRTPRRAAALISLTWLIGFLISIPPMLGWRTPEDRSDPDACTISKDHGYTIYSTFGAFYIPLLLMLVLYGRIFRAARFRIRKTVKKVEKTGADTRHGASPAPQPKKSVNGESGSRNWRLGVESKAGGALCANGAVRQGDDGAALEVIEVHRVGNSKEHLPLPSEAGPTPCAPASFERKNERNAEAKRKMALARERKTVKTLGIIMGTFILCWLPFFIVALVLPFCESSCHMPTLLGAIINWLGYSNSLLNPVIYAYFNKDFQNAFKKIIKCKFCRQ
Put plainly: Ability to bind to 5-hydroxytryptamine 1A receptor from cloned human expressed in Ha7 cells. Type of assay: cell-based.

Assay [4] deals with T1, 5-hydroxytryptamine receptor 1A. Description: Ability to bind to 5-hydroxytryptamine 1A receptor subtype from cloned human expressed in Ha7 cells. It is filed as cell-based.
Assay [5] is filed under the species Sus scrofa. Put plainly: Ability to induce constriction of pig basilary artery. It is filed as functional. The following applies: read-out: ED50 (the source's name).

One may read the IC50 as the midpoint of a concentration-inhibition curve. Lower therefore signals greater potency in that assay.

On to `CNS(=O)(=O)Cc1ccc2[nH]cc(CCN(C)C)c2c1`, for which the EC50 in assay [1] came to 160 nM; in assay [2], 558 nM.

With `CC(C)/N=C(\NC#N)NCCCNCC1CCc2ccccc2O1` (stereo not given), the EC50 in assay [1] was 115 nM. Besides, the IC50 in assay [3] was 15.8 nM.

`c1cnc(NCCNCC2CCc3ccccc3O2)nc1` (stereo not given): the EC50 in assay [1] turned out to be 60 nM. The compound further showed an IC50 in assay [3] of 31.6 nM.

As to `c1ccc2c(c1)CCC(CNCCCNC1=NCCCN1)C2` (stereo not given), the EC50 in assay [1] turned out to be 615 nM. The same compound gave an IC50 in assay [3] of 126 nM.

For the compound `c1ccc2c(c1)CCC(CNCCCNc1nc3ccccc3[nH]1)O2` (stereo not given), the EC50 in assay [1] was more than 1000 nM. For the same compound, in assay [3], the IC50 was more than 100 nM.

In the case of `c1ccc2c(c1)CCC(CNCCCNc1ccncn1)O2` (stereo not given), the EC50 in assay [1] came out at 78.7 nM. This compound gave a 50% inhibitory concentration (IC50) in assay [3] of 5.01 nM.

Turning to `c1cnc(NCCCNCC2CCc3ccccc3O2)nc1` (stereo not given), in assay [1], the EC50 is more than 100 nM. Further, the IC50 in assay [3] is 2 nM.

Regarding `c1ccc2c(c1)CCC(CNCCCCNC1=NCCCN1)O2` (stereo not given), in assay [1], the EC50 is 11 nM. This compound also showed an IC50 in assay [4] of 7.94 nM.

Take `COc1cccc2c1CCC(CNCCCNC1=NCCCN1)O2` (stereo not given): the EC50 in assay [1] is more than 1000 nM. Moreover, in assay [4], the IC50 was more than 1000 nM.

`c1ccc2c(c1)CCC(CNCCCNc1cnccn1)O2` (stereo not given): the EC50 in assay [1] is 15.5 nM. This compound also had an IC50 in assay [3] of 3.98 nM.

For the compound `c1ccc(NCCCNCC2CCc3ccccc3O2)nc1` (stereo not given), the EC50 in assay [1] was determined as 380 nM. The IC50 in assay [3] is 1.26 nM.

As for `c1ccc2c(c1)CCC(CNCCCNC1=NCCN1)O2` (stereo not given), in assay [1], the EC50 is 31.5 nM. In assay [3], this compound had an IC50 of 12.6 nM.

As for `c1ccc2c(c1)CC[C@@H](CNCCCNC1=NCCCN1)O2`, the EC50 in assay [1] is 51.5 nM. This compound showed an IC50 in assay [3] of 50.1 nM.

On to `c1ccc2c(c1)CC[C@H](CNCCCNC1=NCCCN1)O2`, for which the EC50 in assay [1] was 9.09 nM; in assay [5] (Sus scrofa), 22.9 nM; in assay [5], 29.2 nM. Besides, 5.01 nM corresponded to half-maximal inhibition in assay [3] (IC50).

On to `COc1cccc2c1OC(CNCCCNC1=NCCCN1)CC2` (stereo not given), for which the EC50 in assay [1] amounted to 2.09 nM. In assay [4], this compound showed an IC50 of 5.01 nM.

For `c1ccc2c(c1)NCC(CNCCCNC1=NCCCN1)O2` (stereo not given), the EC50 in assay [1] is more than 1000 nM. For the same compound, the IC50 in assay [3] was more than 1000 nM.

As for `c1ccc2c(c1)CC(CNCCCNC1=NCCCN1)CO2` (stereo not given), the EC50 in assay [1] is more than 1000 nM. The same compound gave an IC50 in assay [3] of more than 1000 nM.

Consider `c1ccc2c(c1)CCC(CNCCCNC1=NCCCN1)O2` (stereo not given), for which the EC50 in assay [1] stood at 4.53 nM. In assay [4], the IC50 is 12.6 nM.

Consider `CC1(CNCCCNC2=NCCCN2)CCc2ccccc2O1` (stereo not given), for which the EC50 in assay [1] was more than 1000 nM. In addition, the IC50 in assay [3] is more than 1000 nM.

In the case of `c1ccc2c(c1)CCC(CNCCNC1=NCCCN1)O2` (stereo not given), the EC50 in assay [1] was found to be 49.4 nM. Further, the IC50 in assay [4] is 15.8 nM.

Take `c1ccc2c(c1)CCC(CNCCCCCNC1=NCCCN1)O2` (stereo not given): the EC50 in assay [1] is 15.2 nM. Half-maximal inhibition in assay [4] (IC50) was put at 5.01 nM.

On to `COc1ccc2c(c1)CCC(CNCCCNC1=NCCCN1)O2` (stereo not given), for which the EC50 in assay [1] was more than 1000 nM. The compound further gave an IC50 in assay [4] of more than 1000 nM.

Take `Clc1ccc(NCCCNCC2CCc3ccccc3O2)nn1` (stereo not given): the EC50 in assay [1] was more than 100 nM. In assay [3], this compound had an IC50 of 0.398 nM.

Turning to `c1ccc2c(c1)CCC(CNCCCNc1nccs1)O2` (stereo not given), the EC50 in assay [1] stood at 570 nM. This compound also gave an IC50 in assay [3] of 1.58 nM.

With `c1ccc2c(c1)OCC(CNCCCNC1=NCCCN1)O2` (stereo not given), the EC50 in assay [1] amounted to 66.5 nM. Moreover, the IC50 in assay [3] was 20 nM.

For `CCc1ccc2c(c1)OC(CNCCCNC1=NCCCN1)CC2` (stereo not given), in assay [1], the EC50 was 1.93 nM. The compound further gave an IC50 in assay [4] of 3.98 nM.

With `Fc1ccc2c(c1)CCC(CNCCCNC1=NCCCN1)O2` (stereo not given), in assay [1], the EC50 was found to be 19.7 nM. In assay [4], this compound showed an IC50 of 25.1 nM.

With `CC(C)/N=C(\N)NNCCCNCC1CCc2ccccc2O1` (stereo not given), in assay [1], the EC50 came to 4.8 nM. The same compound had an IC50 in assay [4] of 7.94 nM.

Consider `O=C1CCCN=C(NCCCNCC2CCc3ccccc3O2)N1` (stereo not given), for which the EC50 in assay [1] is more than 1000 nM. This compound gave an IC50 in assay [3] of 2 nM.

On to `c1ccc2c(c1)CCC(CNCCCNC1=NCCCC1)O2` (stereo not given), for which, in assay [1], the EC50 amounted to 17 nM. Besides, inhibition in assay [3] was half-maximal at 6.31 nM (IC50).

For `c1ccc2c(c1)CC(CNCCCNC1=NCCCN1)O2` (stereo not given), the EC50 in assay [1] was more than 1000 nM. Half-maximal inhibition in assay [3] (IC50) was put at 50.1 nM.

In the case of `CN1c2ccccc2CCC1CNCCCNC1=NCCCN1` (stereo not given), in assay [1], the EC50 was more than 1000 nM. In assay [3], this compound gave an IC50 of more than 1000 nM.

With `COc1ccc2c(c1)OC(CNCCCNC1=NCCCN1)CC2` (stereo not given), in assay [1], the EC50 worked out at 17.8 nM. In assay [4], this compound gave an IC50 of 12.6 nM.

As to `c1ccc2c(c1)CCCC(CNCCCNC1=NCCCN1)O2` (stereo not given), the EC50 in assay [1] is more than 1000 nM. The IC50 in assay [3] is more than 1000 nM.
